Assay results from patent US5449677A, “Cyclic benzylamino, benzylamido and benzylimido antipsychotic agents” (McNeilab, Inc., priority 1993, dated 1995).
Structures can show the parent of a compound that is named as a salt.

Assay: Block of Conditioned Avoidance Responding (Rat) test (CAR)
Type: in vivo, male Fischer 344 rats
Conditions: po, read-out: % inhibition CAR
Protocol: The sessions consist of 60 trials, one every minute.
% change CAR=((Day 2% CAR/Day 1% CAR)×100)-100
Failure to escape was calculated for each animal as follows:
% Failures=#of Failures to Escape/#of trials

| SMILES | change in vivo at 5 mg/kg |
| --- | --- |
| CC(C)Oc1ccccc1N1CCN(Cc2cccc(CN3CCCCC3=O)c2)CC1 [CP #1, 1-[[3-[[1-[2-(1-Methylethoxy)phenyl]-4-piperazinyl]methyl]phenyl]methyl]piperidin-2-one Hydrochloride (3:2)] | -89% |
| CC(C)Oc1ccccc1N1CCN(Cc2ccc(CN3CCCCC3=O)cc2)CC1 [CP #2, 1-[[4-[[1-[2-(1-Methylethoxy)phenyl]-4-piperazinyl]methyl]phenyl]methyl]-piperidin-2-one Hydrochloride (5:1)] | -29% |
| CC(C)Oc1ccccc1N1CCN(Cc2ccccc2CN2CCCCC2=O)CC1 [CP #3, 1-[[2-[[1-[2-(1-Methylethoxy)phenyl]-4-piperazinyl]methyl]phenyl]methyl]-piperidin-2-one Hydrochloride (3:2)] | -6% |
